Test results published in patent publication US20240287043A1, “KETOAMIDE DERIVATIVE AND APPLICATION THEREOF” (GUANGDONG RAYNOVENT BIOTECH CO., LTD., priority 2021, published 2024).
pEC50, pIC50: −log10 of the molar value. Like-named read-outs stand apart in the source and are kept apart here.

Assays:
[1] = in vivo; settings: male, C57BL/6J, mouse
[2] = biological target: SARS-COV-2 Mpro (Severe acute respiratory syndrome coronavirus 2, UniProt P0DTD1); assay: In vitro inhibitory activity against Mpro protease of novel coronavirus (fluorescence substrate assay); type: biochemical; settings: 25 nM Mpro protein, 25 μM substrate
[3] = system: HCoV OC43; assay: In vitro anti-coronavirus activity using a cytopathic model (CPE, CellTiter Glo); settings: Betacoronavirus 1, OC43, MRC5, 120 h
[4] = male, C57BL/6J, mouse, in vivo
[5] = Cytotoxicity assay in MRC5 cells without viral infection (CellTiter Glo); type: cell-based; settings: human, no viral infection
Source text: The calculation formulas were as below: […]

Structure (SMILES)	AUC(0-t) ([1]; iv, 3 mg/kg) [µM·h]	AUC(0-t) ([1]; po, 10 mg/kg) [µM·h]	Tmax ([1]; po, 10 mg/kg) [h]	bioavailability ([1]; po, 10 mg/kg) [%]	half-life ([1]; po, 10 mg/kg) [h]	pIC50 [2]	pEC50 [3]	CC50 at 5 days [5] [nM]	also measured
CC(C)(C)[C@H](NC(=O)C(F)(F)F)C(=O)N1C[C@H]2[C@@H]([C@H]1C(=O)N[C@H](C#N)CC1CCNC1=O)C2(C)C (stereo partly shown) [PF-07321332, reference compound]	3.33	3.58	0.292	32.7	1.1				Vd ([1]; iv, 3 mg/kg): 0.456 L/kg; clearance ([1]; iv, 3 mg/kg): 30.2 mL/min/kg; half-life ([1]; iv, 3 mg/kg): 0.71 h; Cmax ([1]; po, 10 mg/kg): 2720 nM
CC1([C@H](NC(=O)C(F)(F)F)C(=O)N2C[C@@H]3CCC[C@@H]3[C@H]2C(=O)N[C@@H](C[C@@H]2CCNC2=O)C(=O)C(=O)NC2CCCC2)CCCCC1 [Compound 6]						7.92			
CC(C)(C)NC(=O)C(=O)[C@H](C[C@@H]1CCNC1=O)NC(=O)[C@@H]1[C@H]2CCC[C@H]2CN1C(=O)[C@@H](NC(=O)C(F)(F)F)C1CCCCC1 [Compound 3]	30.6	33	1.5	32	5.4	7.60	6.84	> 10000	Cl ([4]; iv, 3 mg/kg): 2.50 mL/min/kg; T1/2 ([4]; iv, 3 mg/kg): 6.24 h; Vdss ([4]; iv, 3 mg/kg): 1.27 L/kg; Cmax ([4]; po, 10 mg/kg): 4810 nM
CC(C)(C)NC(=O)C(=O)[C@H](C[C@@H]1CCNC1=O)NC(=O)[C@@H]1[C@H]2CCC[C@H]2CN1C(=O)[C@@H](NC(=O)C(F)(F)F)C1CCC1 [Compound 4]						6.98	6.08	> 10000	
O=C(NCc1ccccc1)C(=O)[C@H](C[C@@H]1CCNC1=O)NC(=O)[C@@H]1[C@H]2CCC[C@H]2CN1C(=O)[C@@H](NC(=O)C(F)(F)F)C1CCCCC1 [Compound 2]						7.96	6.43	> 10000	
CC(C)(C)NC(=O)C(=O)[C@H](C[C@@H]1CCNC1=O)NC(=O)[C@@H]1[C@H]2CCC[C@H]2CN1C(=O)[C@@H](NC(=O)C(F)(F)F)C1CCCC1 [Compound 5]						7.30	6.43	> 10000	
O=C(NC1CCCC1)C(=O)[C@H](C[C@@H]1CCNC1=O)NC(=O)[C@@H]1[C@H]2CCC[C@H]2CN1C(=O)[C@@H](NC(=O)C(F)(F)F)C1CCCCC1 [Compound 1]	7.79	5.7	2	22	2.63		6.59	> 10000	Vd ([1]; iv, 3 mg/kg): 1.38 L/kg; clearance ([1]; iv, 3 mg/kg): 10.1 mL/min/kg; concentration at 0.083 h ([1]; iv, 3 mg/kg): 6770 nM; concentration at 0.25 h ([1]; iv, 3 mg/kg): 5530 nM; concentration at 0.5 h ([1]; iv, 3 mg/kg): 3930 nM; concentration at 1 h ([1]; iv, 3 mg/kg): 1960 nM; concentration at 2 h ([1]; iv, 3 mg/kg): 867 nM; concentration at 4 h ([1]; iv, 3 mg/kg): 293 nM; concentration at 8 h ([1]; iv, 3 mg/kg): 89.7 nM; concentration at 24 h ([1]; iv, 3 mg/kg): 6.59 nM; half-life ([1]; iv, 3 mg/kg): 3.8 h; Cmax ([1]; po, 10 mg/kg): 1290 nM; concentration at 0.25 h ([1]; po, 10 mg/kg): 533 nM; concentration at 0.5 h ([1]; po, 10 mg/kg): 706 nM; concentration at 1 h ([1]; po, 10 mg/kg): 952 nM; concentration at 2 h ([1]; po, 10 mg/kg): 1290 nM; concentration at 4 h ([1]; po, 10 mg/kg): 661 nM; concentration at 6 h ([1]; po, 10 mg/kg): 291 nM; concentration at 8 h ([1]; po, 10 mg/kg): 187 nM; concentration at 24 h ([1]; po, 10 mg/kg): 2.69 nM
